From ChEMBL document CHEMBL1139057, “Rotenoids and flavonoids with anti-invasion of HT1080, anti-proliferation of U937, and differentiation-inducing activity in HL-60 from Erycibe expansa” (Bioorg Med Chem, 2007) come the findings set out here.

Common to all, as to format: functional, cell-based
Assay [1] deals with U-937. In words: Antiproliferative activity against human U937 cells after 24 hrs by WST-8 assay. Particulars: U-937, 24 h.
The test system of assay [2] is U-937. The assay can be described thus: Antiproliferative activity against human U937 cells after 48 hrs by WST-8 assay. The conditions noted are these: U-937, 48 h.
Assay [3] deals with U-937. In words: Antiproliferative activity against human U937 cells after 72 hrs by WST-8 assay. The conditions noted are these: U-937, 72 h.

pIC50: −log10 of the molar value.

With `CC(C)(O)[C@@H](O)Cc1c(O)cc2occ(-c3ccc(O)cc3)c(=O)c2c1O` [ERYCIBENIN A], the figures for the pIC50 in the assay on U-937 [1], with U-937 [2] and in the assay on U-937 [3] were 4.34, 4.60 and 4.68, respectively.

As to `COc1ccc2c(c1)OC[C@@]1(OC)c3cc4c(cc3O[C@@H]21)OCO4` [ERYCIBENIN C], the pIC50 with U-937 [1], with U-937 [2] and with U-937 [3] was < 4.00 in each case.

On to `COc1ccc2c(c1)OC[C@H]1c3cc4c(cc3O[C@@H]21)OCO4` [PTEROCARPIN], for which the pIC50 in the assay with U-937 [1], in the assay on U-937 [2] and in the assay with U-937 [3] was < 4.00 throughout.

For the compound `COc1cc2c(cc1OC)[C@@H]1COc3cc(O)ccc3[C@@H]1O2` [SECUNDIFLOROL I], the negative-log IC50 (pIC50) in the assay with U-937 [1], in the assay with U-937 [2] and with U-937 [3] was < 4.00 in each case.

Consider `O=C1C[C@@H](c2ccc(O)c(O)c2)Oc2cc(O)cc(O)c21` [ERIODICTYOL], for which the pIC50 in the assay with U-937 [1], in the assay with U-937 [2] and with U-937 [3] was < 4.00 in each case.

Take `CC1(C)C=Cc2c(cc(O)c3c(=O)c(-c4ccc(O)cc4)coc23)O1` [DERRONE]: the negative-log IC50 (pIC50) in the assay with U-937 [1] was 4.59; in the assay on U-937 [2] it was 4.70; in the assay on U-937 [3], 4.89.

In the case of `CC[C@@]1(O)C(=O)OCc2c1cc1n(c2=O)Cc2cc3ccccc3nc2-1` [CAMPTOTHECIN], the pIC50 in the assay with U-937 [1] was 6.17; in the assay with U-937 [2] it was 7.49; in the assay on U-937 [3] it was 7.82.

As for `COc1cc(O)c(-c2coc3cc(O)ccc3c2=O)cc1OC`, the pIC50 was < 4.00 in the assay on U-937 [1], 4.14 with U-937 [2] and 4.32 in the assay with U-937 [3].

Turning to `COc1cc(-c2coc3cc(O)cc(O)c3c2=O)ccc1O` [3'-O-METHYLOROBOL], the pIC50 in the assay with U-937 [1] is 4.17; in the assay on U-937 [2] it was 4.07; in the assay on U-937 [3], 4.13.

Turning to `COc1ccc2c(=O)c(-c3ccc(OC)c(OC)c3)coc2c1`, the pIC50 with U-937 [1], with U-937 [2] and with U-937 [3] was < 4.00 in each case.

Take `O=c1c(-c2ccc(O)c(O)c2)coc2cc(O)cc(O)c12` [OROBOL]: the results for the pIC50 in the assay on U-937 [1], in the assay on U-937 [2] and in the assay on U-937 [3] were 4.14, < 4.00 and < 4.00, respectively.

`COc1ccc([C@@H]2CCc3c(OC)cc(OC)cc3O2)cc1`: the figures for the pIC50 in the assay with U-937 [1], in the assay with U-937 [2] and with U-937 [3] were 4.54, 4.68 and 4.74, respectively.

Take `COc1ccc([C@@H]2CCc3c(OC)cc(OC)cc3O2)c(OC)c1` [ERYCIBENIN F]: the pIC50 in the assay with U-937 [1], in the assay on U-937 [2] and with U-937 [3] was < 4.00 each time.

For the compound `COc1cc(O)cc2c1C(=O)O[C@@H](C)CCCCCCC2` [LASIODIPLODIN], the pIC50 in the assay on U-937 [1] was 4.44; in the assay on U-937 [2], 4.55; in the assay on U-937 [3], 4.70.
